Publication PMC6147075, “Discovery of novel fragments inhibiting O-acetylserine sulphhydrylase by combining scaffold hopping and ligand–based drug design” (Journal of Enzyme Inhibition and Medicinal Chemistry, 2018)
Like-named read-outs stand apart in the source and are kept apart here.

Key:
OASS = conditions: cited from earlier work
OASS-B [1] = biological target: T1, OASS-B (Salmonella typhimurium, UniProt P29848); parameters: method as in PMID 26894308; conditions: previously reported reference compound 2; cited from earlier work
T1 construct: His6 (N, cleaved yes); made in house; host or cells: E. coli Rosetta (DE3)
T1 sequence (P29848 1-303): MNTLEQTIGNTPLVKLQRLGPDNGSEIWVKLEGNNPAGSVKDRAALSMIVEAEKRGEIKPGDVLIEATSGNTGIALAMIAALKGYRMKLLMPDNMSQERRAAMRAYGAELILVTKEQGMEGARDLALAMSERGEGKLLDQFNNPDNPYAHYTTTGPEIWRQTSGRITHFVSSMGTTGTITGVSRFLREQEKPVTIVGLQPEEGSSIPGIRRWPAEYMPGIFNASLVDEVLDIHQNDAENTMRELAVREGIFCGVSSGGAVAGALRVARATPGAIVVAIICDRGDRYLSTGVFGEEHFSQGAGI

StOASS-A = biological target: T2, StOASS-A (Salmonella typhimurium, UniProt P0A1E3); assay: Fluorimetric binding titration (PLP emission), StOASS-A; parameters: species or system Salmonella enterica serovar Typhimurium; conditions: for LE (OASS-A): LE = (1.37/HA). pIC50, HA = heavy atoms; for Kd: 1 µM StOASS-A, 100 mM Hepes pH 7, 20 °C, read-out: Kd OASS-A
T2 construct: His6 (N, cleaved yes); made in house; host or cells: E. coli Rosetta (DE3)
Method: (§1) The genes cysK and cysM encoding STOASS-A and STOASS-B, respectively, were subcloned from pET16b[34] to pET19m in order to replace the restriction site for Factor Xa with the one for TEV protease. pET19m-STcysK and pET19m-STcysM were transformed in E. coli Rosetta^TM (DE3) competent cells for protein expression. Protein expression and purification was performed following published protocols[34] with some modifications. Briefly, protein expression was induced on bacterial growth in exponential phase by IPTG for 4 and 5 h for OASS-B and OASS-A, respectively. Cells were lysed by pulsed sonication in 50 mM NaP, 300 mM NaCl, pH 7, with the addition of 1 mg/mL lysozyme. Purification was performed by immobilized metal affinity column (IMAC) on Co^2+ ions (Talon™, Clontech Laboratories, Inc., Mountain View, CA). Proteins were eluted with 250 mM (His6-OASS-A) or 600 mM (His6-OASS-B) imidazol. His-tag was removed from His6-OASS-A by treatment with TEV protease during O/N dialysis in 10 mM HEPES pH 8. His-tag was removed from His6-OASS-B by treatment with TEV protease in 20 mM HEPES, 100 mM NaCl, 1 mM TCEP pH 8 for 24 h at 5 °C. […] OASS-A was stored in 10 mM HEPES pH 8 and OASS-B in 20 mM HEPES, 100 mM NaCl, 1 mM TCEP pH 8.
(§2) The concentration of bisulfide was saturating (600 μM), whereas the concentration of OAS was set at Km to increase the sensitivity. The dissociation constant of selected compounds for StOASS-A and OASS-B was measured by a fluorimetric method published elsewhere[23]^,[24]. Briefly, a solution containing 1 µM StOASS-A in 100 mM Hepes pH 7 was titrated with increasing concentrations of compound at 20 °C. The fluorescence emission intensity of the PLP cofactor at 505 nm upon excitation at 412 nm was collected after each addition, subtracted by the blank and normalized by the protein dilution. The dependence of the emission intensity at 505 nm on the concentration of the compound was fitted to a binding isotherm[23] to calculate the dissociation constant of the protein-ligand complex.

OASS-B [2] = biological target: T1, OASS-B; assay: biochemical; format: binding; conditions: for LE (OASS-B): LE = (1.37/HA). pIC50, HA = heavy atoms
Method: as §1, §2

Salmonella = assay: Activity against Salmonella in vitro; format: cell-based
[3] = test system: cell envelope of Gram-negative bacteria; conditions: not told
OASS-B [4] = biological target: T1, OASS-B; assay: 96-well activity assay (cysteine-ninhydrin), OASS-B; format: biochemical; conditions: for % inhibition OASS-B: compound 1 µM, bisulfide 600 µM, OAS at Km, two replicates, ns = Not Significant; for inhibition at 1000 µM: read-out: % inhibition OASS-B
Method: as §1, §2

OASS-A = biological target: T3, OASS-A (Salmonella typhimurium, UniProt P0A1E3); assay: 96-well activity assay (cysteine-ninhydrin), OASS-A; format: biochemical, Salmonella enterica serovar Typhimurium; conditions: bisulfide 600 µM, OAS at Km, two replicates
T3 construct: His6 (N, cleaved yes); made in house; host or cells: E. coli Rosetta (DE3)
Method: as §1, §2

[5] = compound 1 µM, ns = Not Significant
[6] = read-out: % inhibition OASS-A, compound 1 mM
[7] = compound 1 mM, read-out: % inhibition OASS-A

T3 sequence (P0A1E3 whole entry): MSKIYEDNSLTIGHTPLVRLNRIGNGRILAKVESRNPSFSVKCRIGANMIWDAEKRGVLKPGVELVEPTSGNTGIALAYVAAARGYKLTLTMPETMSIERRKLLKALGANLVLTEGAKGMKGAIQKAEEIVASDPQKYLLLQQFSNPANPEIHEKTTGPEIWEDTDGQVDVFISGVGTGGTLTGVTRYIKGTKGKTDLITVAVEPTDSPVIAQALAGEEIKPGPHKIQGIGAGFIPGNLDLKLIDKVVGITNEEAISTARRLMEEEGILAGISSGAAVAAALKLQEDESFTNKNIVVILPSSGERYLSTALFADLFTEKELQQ
T2 sequence (P0A1E3 whole entry): as above

SMILES	% inhibition OASS-B (OASS-B [4])	inhibition at 1000 µM (OASS-B [4]) [%]	% inhibition OASS-A (OASS-A; [5])	inhibition at 1000 µM (OASS-A; [7]) [%]	other results
C/C=C/[C@@H]1C[C@H]1C(=O)O (racemic) [Compound 1, (±)-trans-2-[(1E)-prop-1-en-1-yl]cyclopropanecarboxylic acid]	–	–	–	–	Kd (OASS; read-out: Kd): 1460 nM
Cc1ccc(C[C@@]2(C(=O)O)C[C@H]2c2ccccc2)cc1 [Compound 2, (1S,2S)-1–(4-methylbenzyl)-2-phenylcyclopropanecarboxylic acid]	–	–	–	–	Kd (OASS-B [1]): 49 nM; Kd (OASS; read-out: Kd-OASS): 28 nM; LE (OASS-A) (StOASS-A): 0.52 kcal/mol/HA; LE (OASS-B) (OASS-B [2]): 0.50 kcal/mol/HA; activity when tested against Salmonella in vitro (Salmonella): did not show any activity; permeability through the cell envelope [3]: poor permeability
Cc1ccc(-n2nccc2C(=O)O)cc1 [Compound 4a, 1-(p-tolyl)-1H-pyrazole-5-carboxylic acid]	ns	65 ± 2	ns^b	–	% inhibition OASS-A (OASS-A; compound 1 mM): 45 ± 3%; inhibition at 1000 µM (OASS-A; [6]): 50%
O=C(O)c1ccnn1-c1ccccc1 [Compound 4b, 1-phenyl-1H-pyrazole-5-carboxylic acid]	–	65 ± 1	ns	66 ± 1	inhibition at 1 µM (OASS-B [4]): 11 ± 3%
O=C(O)c1ccn[nH]1 [Compound 4c, 1H-pyrazole-5-carboxylic acid]	ns	82 ± 1	–	> 90	Kd (StOASS-A): 122 ± 5 µM; LE (OASS-A) (StOASS-A): 0.67 kcal/mol/HA; Kd (OASS-B [2]): 272 ± 10 µM; LE (OASS-B) (OASS-B [2]): 0.61 kcal/mol/HA; inhibition at 1 µM (OASS-A; [5]): 9 ± 7%; % inhibition OASS-A (OASS-A; compound 1 mM): 94 ± 1%
O=C(O)c1ccnn1-c1ccc(Cl)cc1 [Compound 4d, 1–(4-chlorophenyl)-1H-pyrazole-5-carboxylic acid]	–	56 ± 1	ns	60 ± 2	inhibition at 1 µM (OASS-B [4]): 9 ± 6%
O=C(O)c1ccnn1-c1ccc(Br)cc1 [Compound 4e, 1–(4-bromophenyl)-1H-pyrazole-5-carboxylic acid]	ns	58 ± 2	ns	–	% inhibition OASS-A (OASS-A; compound 1 mM): 84 ± 1%; inhibition at 1000 µM (OASS-A; [6]): > 80%
CC(C)(C)c1ccc(-n2nccc2C(=O)O)cc1 [Compound 4f, 1–(4-(tert-butyl)phenyl)-1H-pyrazole-5-carboxylic acid]	ns	52 ± 5	ns	47 ± 1	–
O=C(O)c1ccnn1-c1ccc(F)cc1 [Compound 4g, 1–(4-fluorophenyl)-1H-pyrazole-5-carboxylic acid]	–	62 ± 1	–	95 ± 1	inhibition at 1 µM (OASS-B [4]): 14 ± 2%; inhibition at 1 µM (OASS-A; [5]): 8 ± 1%
O=C(O)c1ccnn1C1CCCCC1 [Compound 4h, 1-cyclohexyl-1H-pyrazole-5-carboxylic acid]	ns	30 ± 1	ns	57 ± 1	–
O=C(O)c1ccn(-c2ccc(Cl)cc2)n1 [Compound 5d, 1–(4-chlorophenyl)-1H-pyrazole-3-carboxylic acid]	–	63 ± 1	ns	63 ± 1	inhibition at 1 µM (OASS-B [4]): 15 ± 2%
O=C(O)c1ccn(-c2ccc(Br)cc2)n1 [Compound 5e, 1–(4-bromophenyl)-1H-pyrazole-3-carboxylic acid]	ns	35 ± 2	ns	62 ± 1	–
CC(C)(C)c1ccc(-n2ccc(C(=O)O)n2)cc1 [Compound 5f, 1–(4-(tert-butyl)phenyl)-1H-pyrazole-3-carboxylic acid]	–	82 ± 1	ns	81 ± 1	inhibition at 1 µM (OASS-B [4]): 11 ± 6%
O=C(O)c1ccn(-c2ccc(F)cc2)n1 [Compound 5g, 1–(4-fluorophenyl)-1H-pyrazole-3-carboxylic acid]	ns	36 ± 3	ns	73 ± 1	–
O=C(O)c1ccn(C2CCCCC2)n1 [Compound 5h, 1-cyclohexyl-1H-pyrazole-3-carboxylic acid]	ns	43 ± 3	ns	79 ± 1	–
O=C(O)c1ccc[nH]1 [Compound 14, 1H-pyrrole-2-carboxylic acid]	–	–	–	–	Kd (StOASS-A): 59 ± 11 µM; LE (OASS-A) (StOASS-A): 0.72 kcal/mol/HA; Kd (OASS-B [2]): 465 ± 50 µM; LE (OASS-B) (OASS-B [2]): 0.60 kcal/mol/HA
O=C(O)c1nccs1 [Compound 16, thiazole-2-carboxylic acid]	–	–	–	–	Kd (StOASS-A): 52 ± 6 µM; LE (OASS-A) (StOASS-A): 0.74 kcal/mol/HA; Kd (OASS-B [2]): 338 ± 14 µM; LE (OASS-B) (OASS-B [2]): 0.60 kcal/mol/HA
